How the values were obtained:
[1] = tested on: AHR; assay: AHR modulation in NPCs, qPCR of AHR, CYP1A1, IDO1 and TDO2; format: cell-based, human; conditions: at the concentrations tested; NPCs 24 h; FIGS. 10A-10D
Method: FIGS. 10A-10D: AHR modulation in NPCs. NPCs were treated with I3S or a combination of I3S and CH223191. 24 h after treatment, NPCs were harvested for RNA extraction followed by qPCR analysis of AHR (FIG. 10A), CYP1A1 (FIG. 10B), IDO1 (FIG. 100) and TDO2 (FIG. 10D). Data represent the mean+s.e.m. from three independent experiments. P values were determined by Student's t-test.
RNA was extracted using the RNAeasy kit (Qiagen). cDNA was synthesized using the High-Capacity cDNA Reverse Transcription kit (Applied Biosystems) and qPCR was performed using TaqMan Fast Advanced Master Mix (Applied Biosystems). Gene expression was normalized to GAPDH. Primers and probes (Applied Biosystems) were: GAPDH Hs02786624_g1, IFNB1 Hs01077958_s1, AHR Hs00169233_m1, PML Hs00971694_m1, CYP1A1 Hs01054796_g1, IFITM1 Hs00705137_s1, CYP1B1 Hs02382916_s1, CXCL10 Hs00171042_m1, IDO1 Hs00984148_m1, IDO2 Hs01589373_m1, IFITM Hs00705137_s1, TDO Hs00194611_m1. Primers and probes for the specific detection of Zika virus RNA were utilized as previously described^81, 82. For viral load determination in vivo, brains and spleens from pups were macerated on trizol (Invitrogen) for RNA extraction. RNA pellets were resuspended in RNase-free water and quantified by spectrophotometry (NanoDrop—Thermo Scientific) and stored at −80° C. […] Quantification was compared with threshold cycle (Ct) value with a ZIKV plasmid standard curve.

[2] = tested on: ZIKV; assay: Infectious virus particles in supernatants of ZIKV-infected human NPC cells, plaque assay; format: cell-based, Zika virus; conditions: FIG. 13
Method: FIG. 13: Quantification of infectious virus particles in the supernatants of human NPC cells pre-treated with CH2213191 or vehicle-treated using a standard plaque assay in Vero cells. Data represent the mean+s.e.m. from three independent experiments. P values were determined by a one-way ANOVA followed by Tukey's post-hoc test.
HepG2 (ATCC, HB-8065), A549 (ATCC® CCL-185™), HeLa (ATCC, CCL-2) and Vero cells (African green monkey kidney) (ATCC, CCL-81) were grown in Dulbecco's Modified Eagle's medium (DMEM, GIBCO) supplemented with 10% fetal bovine serum, 100 IU/ml of penicillin and 100 ug/ml of streptomycin. HEK-293 cells (ATCC, CRL-1573) and SUM149 cells (Asterand Bioscience, Detroit, Mich.) were grown in DMEM/F12 (GIBCO) supplemented with 10% fetal bovine serum, 100 IU/ml of penicillin and 100 ug/ml of streptomycin. C6/36 mosquito cells from Aedes albopictus were used to generate viral stocks, and were cultured in L-15 medium (Leibovitz) (GIBCO) supplemented with 0.3% tryptose phosphate broth, 0.02% glutamine, 1% MEM non-essential amino acids solution and 10% fetal bovine serum. Human NPCs (Stem Cell Technologies, Catalog #70901) were grown using neural progenitor medium 2 (Stem Cell Technologies). […]

[3] = tested on: Pml promoter; assay: ChIP analysis of AHR and NF-κB binding sites in the Pml promoter, ZIKV-infected HepG2 cells; format: cell-based, human; conditions: 48 h p.i., FIGS. 26A-26D
Method: FIGS. 26A-26D: ChIP analysis of AHR (FIGS. 26A-26C) and NF-KB (FIG. 26D) binding sites in the Pml promoter. 48 h p.i. cells were fixed and ChIP was performed using AHR and NF-KB-specific antibodies or non-specific IgG. Data are mean+s.e.m. and are representative of two independent experiments.
FIG. 27: ChIP analysis of AHR binding to site 2 in Pml promoter. 48 h p.i. cells were fixed and ChIP was performed using AHR and NF-KB-specific antibodies or non-specific IgG. Data are mean+s.e.m. and are representative of two independent experiments
HepG2 cells were mock-infected or infected with ZIKV. 48 h p.i. protein-DNA complexes were cross-linked using 1% paraformaldehyde and lysed with 350 μl lysis buffer (1% SDS, 10 mM EDTA, 50 mM Tris-HCl, pH 8.1 and 1× protease inhibitor cocktail). Chromatin was sheared by sonication, supernatants were collected after centrifugation and diluted in ChIP incubation buffer (1% Triton X-100, 2 mM EDTA, 150 mM NaCl, 20 mM Tris-HCl, pH 8). 5 μg of antibody (anti-AHR or anti-NF-κB p65) was prebound to protein A- and protein G-Dynal magnetic beads (Invitrogen, USA) for 6 h with rotation at 4° C., washed three times with ice-cold 1% BSA in PBS, and finally added to the diluted chromatin. […] DNA fragments were purified with a QIAquick DNA purification kit (Qiagen, USA) and analyzed using the SYBR Green real-time PCR kit (Takara Bio Inc., USA). […]

Q: For `Cc1ccccc1/N=N/c1ccc(NC(=O)c2ccnn2C)c(C)c1` [CH223191, 2-Methyl-2H-pyrazole-3-carboxylic Acid (2-methyl-4-o-tolylazo-phenyl)-amide], which “AHR inhibition / activation” value [1] is on record?
A: significant AHR inhibition

Q: And the “ZIKV replication in NPCs cultures” value [2]?
A: decreased

Q: And the “AHR recruitment to its responsive elements in the Pml promoter” value [3]?
A: decreased

Q: What about the “recruitment of NF-κB to its responsive element in the Pml promoter” value [3] of the same molecule?
A: increased
